What was measured:
[1] = Compound was tested for the competitive inhibition against mouse brain N-Myristoyltransferase; format: tissue-based
[2] = Michaelis-Menten constant against myristoyl CoA was determined in mouse; format: organism-based

In the case of `CCCCCCCCCCCCCC(=O)CSCCNC(=O)CCNC(=O)C(O)C(C)(C)COP(=O)(O)OP(=O)(O)OC[C@H]1O[C@@H](n2cnc3c(N)ncnc32)[C@H](O)[C@@H]1OP(=O)(O)O` (some centres not stated), the Ki [1] is reported as 24 nM and the Km [2] is reported as 0.4 µM.

— ChEMBL document CHEMBL1124540, “S-(2-oxopentadecyl)-CoA, a nonhydrolyzable analogue of myristoyl-CoA, is a potent inhibitor of myristoyl-CoA:protein N-myristoyltransferase” (J Med Chem, 1989)
